From patent US7741348B2, “Bisheterocycle tandem compounds useful as antiviral agents, the uses thereof and the compositions comprising such compounds” (Shanghai Institute of Materia Medica, Chinese Academy of …, priority 2005, dated 2010)
≈ marks a conversion by molar mass, not a printed value. Read-outs that look alike come from different tables or passages of the source.

Key:
[1] = Cytotoxicity to HepG2.2.15 cells (MTT method); type: cell-based; conditions: human, HepG2.2.15 cells (HBV-transgenic human hepatoma cells), 50% death concentration, eighth day
From the text: (§1) Hepatitis B virus (HBV) transgenic human hepatoma carcinoma cell, HepG2.2.15 cell line, can secrete hepatitis B virus particles (containing antigen and DNA) into supernatant when being cultured.
(§2) Under action of antiviral drugs, the contents of HBsAg, HBeAg and viral DNA secreted from cells into the supernatant were detected and are compared with the contents of control groups without drugs, so that the antiviral activity of the compounds of the present invention can be measured as well as the cytotoxic effect of compounds of the present invention. The value concentration of the compounds of the present invention which caused 50% of cells dead and was measured with MTT method was CC50; and the value concentration of the compounds of the present invention which inhibited the secretion of HBsAg and HBeAg detected by ELISA method and inhibited 50% of viral DNA replication detected by fluorescent quantification PCR method was IC50.
(§3) HepG2.2.15 cells were inoculated on a 96-well plate, and the compounds of the present invention were added next day. The medium and the compound solutions of the same concentration were renewed periodically. The culture supernatants were collected on the eighth day to be detected. MTT was added to the cells on the 96-well plate, and MTT dissolving liquid was added after 4 hours to be reacted overnight. OD570 was measured next day on microplate reader. And the cytotoxicity of the compounds of the present invention to the HepG2.2.15 cells, the effect of the compounds of the present invention on the growth of the cells, and the concentration of the compound of the present invention (CC50) causing 50% of the cells dead were estimated according to the OD values.

[2] = test system: MDCK (canine kidney) cells; assay: 50% toxicity concentration in the anti-influenza screen (MDCK cells); type: cell-based; conditions: 50% toxity concentration, Table 3-2 (influenza screen, MDCK cells)
From the text: (§4) 4. Screening of the samples for the anti-influenza virus A and B activity: MDCK (canine kidney) cells were used as the virus host to test the inhibition effect of the compounds of the present invention on the cytopathic effect (CPE) of the cells caused by the virus.

hepatitis B virus (HBV) [3] = assay: HBsAg secretion in HepG2.2.15 culture supernatant (ELISA); type: cell-based; conditions: HepG2.2.15 supernatant, eighth day, read-out: HBsAg secreation IC50
From the text: as §1, §2, §3
(§5) HBsAg and HBeAg were detected with assaying kits (purchased from Sino-American biotechnological company). Samples were added to the coated strip plate, and the same amount of enzyme labeled conjugate was added, after reacting under 37° C. for 1 hour, the plate was washed 5 times. Colorant solutions A and B were added, and the reaction was stopped after 15 minutes, and OD450/630 was measured. The half inhibition rate IC50 of the sample for the HBV antigen was calculated according to the OD values.

influenza A virus = assay: Anti influenza A virus activity, cytopathic effect (CPE) in MDCK cells; type: cell-based
From the text: as §4

[4] = test system: Vero (African green monkey kidney) cells; assay: 50% toxicity concentration in the anti-herpes virus screen (Vero cells); conditions: 50% toxity concentration, Table 3-1 (herpes virus screen, Vero cells)
herpes virus II (HSV-II) = assay: Anti herpes virus II activity, cytopathic effect in Vero cells; type: cell-based; conditions: read-out: Anti herpes virus II HSV-II (IC50)
From the text: (§6) 3. Screening of the compounds for the anti-herpes virus I and II activity: Vero (African green monkey kidney) cells were used as virus host to test the inhibition effect of the compounds of the present invention on the cytopathic effect of the Vero cells caused by Herpes virus I and II.

hepatitis B virus (HBV) [5] = assay: HBV-DNA replication in HepG2.2.15 culture supernatant (fluorescent quantification PCR); type: cell-based; conditions: for IC50: HepG2.2.15 supernatant, eighth day, fluorescent quantification PCR, read-out: DNA replication IC50
From the text: as §1, §2, §3
A suitable amount of culture supernatant was added into a same volume of virus extract solution, and was boiled after mixed uniformly, then centrifuged at 10000 rpm for 5 min under room temperature. A suitable amount of supernatant was collected for PCR amplification. Five HBV-DNA standard samples were used to set a standard curve. According to the obtained viral DNA replication value, the inhibition rates of HBV-DNA replication of the compound of the present invention at different concentrations were calculated, and then the half inhibition rates of the compounds were calculated to obtain IC50. For the samples that can not be calculated for IC50 value, they can be represented by ICX and given the corresponding concentration values.

hepatitis B virus (HBV) [6] = assay: HBeAg secretion in HepG2.2.15 culture supernatant (ELISA); type: cell-based; conditions: HepG2.2.15 supernatant, eighth day, read-out: HBeAg secreation IC50
From the text: as §1, §2, §3, §5

herpes virus I (HSV-I) = assay: Anti herpes virus I activity, cytopathic effect in Vero cells; type: cell-based; conditions: read-out: Anti herpes virus I HSV-I (IC50)
From the text: as §6

HIV-1 integrase = target: T1, HIV-1 integrase (Human immunodeficiency virus type 1 group M subtype B, UniProt P04585); assay: HIV-1 integrase inhibition (ELISA, chain transfer); type: biochemical; conditions: enzyme inhibition
T1 construct: purified HIV-1 integrase
Description: 2. Screening of the compounds for the anti HIV-1 integrase activity: the synthesized 30 oligonucleotide (5′P-[…]-3′,3′-[…]-5′) was used as donor substrate, and the synthesized 20 oligonucleoside (5′-[…]-3′-biotin, biotin-3′-[…]-5′) was used as target substrate. On a 96-well plate, the donor substrate was added with purified HIV-1 integrase to conduct ELISA reaction. The product of chain transfer of target DNA was detected and stained in the biotin labeled alkaline phosphatase system, OD values were measured with microplate reader. Addition of the compounds of the present invention in the reaction system can be used to screen the inhibitor of the enzyme.

[7] = Human alphaherpesvirus 2, Vero cells, cytopathic effect

SMILES	CC50 [1] [µM]	TC50 [2] [µg/mL]	IC50 (hepatitis B virus (HBV) [3]) [µM]	IC50 (influenza A virus) [µg/mL]	IC50 (hepatitis B virus (HBV) [6]) [µM]	also measured
COC(=O)c1nc(-c2csc([C@@H](NC(=O)c3ccccc3F)C(C)C)n2)oc1C [Wang417.46-J]	755	>1000	143	> 86.2	–	–
COC(=O)c1coc([C@H](C)NC(=O)c2nc(-c3csc([C@@H](NC(=O)C4CC4)C(C)C)n3)oc2C)n1 [Wang 501.56-1]	–	303.69 (≈ 605 µM)	–	1.18 (≈ 2.35 µM)	–	TC50 [4]: 707.11 µg/mL (≈ 1410 µM); IC50 (herpes virus II (HSV-II); [7]): 293 µg/mL (≈ 585 µM)
CCCc1[nH]c(-c2nccs2)nc1C(=O)OCC [Wang265]	548	–	131	–	38.8	DNA replication IC44 (hepatitis B virus (HBV) [5]; ICX: concentration with 44% inhibition of HBV-DNA replication, IC50 not calculable): IC44 = 4.1 uM
COC(=O)c1nc(-c2csc([C@@H](NC(=O)c3cccs3)C(C)C)n2)oc1C [Wang405.49]	154	–	63.5	–	46	IC50 (hepatitis B virus (HBV) [5]; Hepatitis B virus): 76 µM
COC(=O)c1nc(-c2nccs2)sc1Cc1ccccc1 [Wang316]	174	–	33.7	–	70.5	IC20 (hepatitis B virus (HBV) [5]; Hepatitis B virus, HepG2.2.15): 31.3 µM
COC(=O)c1nc(-c2csc([C@@H](NC(=O)COCc3ccccc3)C(C)C)n2)oc1C [Wang 443.52]	–	165.86 (≈ 374 µM)	–	1.29 (≈ 2.91 µM)	–	TC50 [4]: 168.24 µg/mL (≈ 379 µM); IC50 (herpes virus I (HSV-I); Human alphaherpesvirus 1, Vero): 107 µg/mL (≈ 240 µM); IC50 (herpes virus II (HSV-II); Human alphaherpesvirus 2, Vero): 78.8 µg/mL (≈ 178 µM)
O=C(O)c1nc(-c2nccs2)sc1Cc1ccccc1 [Wang302]	–	–	–	–	83.2	IC50 (hepatitis B virus (HBV) [5]; Hepatitis B virus): 63.1 µM
CCOC(=O)c1nc(-c2cccs2)[nH]c1-c1ccccc1 [Wang298]	569	–	144	–	209	–
CCOC(=O)c1nc(-c2nccs2)[nH]c1CC(C)C [Wang279-1]	786	–	143	–	102	DNA replication IC60 (hepatitis B virus (HBV) [5]; ICX: concentration with 60% inhibition of HBV-DNA replication, IC50 not calculable): IC60 = 37 uM
COC(=O)c1nc(-c2ncco2)sc1-c1ccc(F)cc1Cl [Wang338]	200	–	77.6	–	22.3	IC50 (hepatitis B virus (HBV) [5]; Hepatitis B virus): 6.1 µM
COC(=O)c1nc(-c2csc([C@@H](NC(=O)C(C)(C)C)C(C)C)n2)oc1C [Yao379.47]	–	577.35 (≈ 1520 µM)	–	97.8 (≈ 258 µM)	–	–
COC(=O)c1coc([C@H](C)NC(=O)c2nc(-c3csc([C@@H](NC(=O)C4CCCC4)C(C)C)n3)oc2C)n1 [Wang529.61-1]	472	191.74 (≈ 362 µM)	214	3.15 (≈ 5.95 µM)	171	TC50 [4]: 198.43 µg/mL (≈ 375 µM); IC50 (herpes virus II (HSV-II); [7]): 107 µg/mL (≈ 201 µM)
Clc1nc(-c2nccs2)[nH]c1-c1ccccc1 [Wang261]	123	–	92.4	–	37	–
Nc1nc2c(ncn2COCCO)c(=O)[nH]1 [ACV (acyclovir), acyclovir, reference compound]	–	–	–	–	–	TC50 [4]: >1000 µg/mL
COC(=O)c1coc([C@H](C)NC(=O)c2nc(-c3csc([C@@H](NC(=O)CC4=CCCCC4)C(C)C)n3)oc2C)n1 [Wang 555.65]	–	577.35 (≈ 1040 µM)	–	44.5 (≈ 80 µM)	–	–
Cc1oc(-c2csc([C@@H](NC(=O)CC3=CCCC3)C(C)C)n2)nc1C(=O)O [Wang389.47]	–	480.75 (≈ 1230 µM)	–	29 (≈ 74.5 µM)	–	–
COC(=O)c1nc(-c2csc([C@@H](NC(=O)CC3=CCCC3)C(C)C)n2)oc1C [Wang 403.50]	–	333.33 (≈ 826 µM)	–	64.2 (≈ 159 µM)	–	–

SMILES	CC50 [1] [µM]	TC50 [2] [µg/mL]	IC50 (hepatitis B virus (HBV) [3]) [µM]	IC50 (influenza A virus) [µg/mL]	IC50 (hepatitis B virus (HBV) [6]) [µM]	also measured
Clc1nc(-c2cccs2)[nH]c1-c1ccccc1 [Wang260]	270	–	71.4	–	130	DNA replication IC85 (hepatitis B virus (HBV) [5]; ICX: concentration with 85% inhibition of HBV-DNA replication, IC50 not calculable): IC85 = 37 uM
COC(=O)c1nc(-c2csc([C@@H](NC(=O)CCC=C(C)C)C(C)C)n2)oc1C [Yao405.51]	–	577.35 (≈ 1420 µM)	–	37 (≈ 91.3 µM)	–	–
COC(=O)c1nc(-c2csc([C@@H](NC(=O)C3CCCC3)C(C)C)n2)oc1C [Wang391.49-1]	–	250 (≈ 639 µM)	–	0.56 (≈ 1.43 µM)	–	–
COC(=O)c1nc(-c2nccs2)sc1CC(C)C [Wang282-1]	–	–	67.6	–	21.7	IC50 (hepatitis B virus (HBV) [5]; Hepatitis B virus): 2.4 µM
CCOC(=O)c1nc(-c2cccs2)[nH]c1CC(C)C [Wang278-1]	90.3	–	34.1	–	19	DNA replication IC88 (hepatitis B virus (HBV) [5]; ICX: concentration with 88% inhibition of HBV-DNA replication, IC50 not calculable): IC88 = 1.37 uM
CCCCc1sc(-c2nccs2)nc1C(=O)O [Wang268]	–	–	37.2	–	128	DNA replication IC53 (hepatitis B virus (HBV) [5]; ICX: concentration with 53% inhibition of HBV-DNA replication, IC50 not calculable): IC53 = 125 uM
CC(C)Cc1sc(-c2nccs2)nc1C(=O)O [Wang268-1]	437	–	90	–	101	IC50 (hepatitis B virus (HBV) [5]; Hepatitis B virus): 153 µM
COC(=O)c1nc(-c2csc([C@@H](NC(=O)c3cccc(F)c3)C(C)C)n2)oc1C [Wang417.46-P]	–	422.43 (≈ 1010 µM)	–	0.9 (≈ 2.16 µM)	–	TC50 [4]: 198.43 µg/mL (≈ 475 µM); IC50 (herpes virus II (HSV-II); [7]): 107 µg/mL (≈ 255 µM)
CCC(=O)N[C@H](c1nc(-c2nc(C(=O)OC)c(C)o2)cs1)C(C)C [Yao 351.42]	–	577.35 (≈ 1640 µM)	–	259 (≈ 736 µM)	–	–
CCCc1[nH]c(-c2cccs2)nc1C(=O)OCC [Wang264]	124	–	41.3	–	95.5	–
COC(=O)c1coc([C@H](C)NC(=O)c2nc(-c3csc([C@@H](NC(=O)CC=C(C)C)C(C)C)n3)oc2C)n1 [Wang529.61-2]	–	577.35 (≈ 1090 µM)	–	111 (≈ 210 µM)	–	–
COC(=O)c1coc([C@H](C)NC(=O)c2nc(-c3csc([C@@H](NC(=O)C4CCCCC4)C(C)C)n3)oc2C)n1 [Wang 543.64-1]	–	144.34 (≈ 266 µM)	–	57.8 (≈ 106 µM)	–	–
CCCCc1sc(-c2nccs2)nc1C(=O)OC [Wang282]	397	–	58.8	–	57.3	IC50 (hepatitis B virus (HBV) [5]; Hepatitis B virus): 19.4 µM
COC(=O)c1nc(-c2csc([C@@H](NC(=O)c3ccccc3)C(C)C)n2)oc1C [Wang 399.46]	–	166.67 (≈ 417 µM)	–	1.14 (≈ 2.85 µM)	–	IC50 (HIV-1 integrase): 365 µM
COC(=O)c1nc(-c2csc([C@@H](NC(=O)C3CC3)C(C)C)n2)oc1C [Wang363.43-1]	–	500 (≈ 1380 µM)	–	3.97 (≈ 10.9 µM)	–	TC50 [4]: 707.11 µg/mL (≈ 1950 µM); IC50 (herpes virus I (HSV-I); Human alphaherpesvirus 1, Vero cells, cytopathic effect): 369 µg/mL (≈ 1020 µM)
COC(=O)c1nc(-c2csc([C@@H](NC(=O)C3CCC3)C(C)C)n2)oc1C [Wang 377.46-1]	–	500 (≈ 1320 µM)	–	111 (≈ 294 µM)	–	–
CCCCc1[nH]c(-c2cccs2)nc1C(=O)OCC [Wang278]	153	–	67.3	–	24	IC50 (hepatitis B virus (HBV) [5]; Hepatitis B virus): 4.8 µM
